Experimental data from paper PMC12903969, “Discovery of a Novel and Potent Kir4.1 Inhibitor as a Safe and Rapid‐Onset Antidepressant Agent in Mice” (Advanced Science, 2025).
Values joined by “and” are separate entries in the source; they are usually repeats but may differ in a detail not shown here. Equal values may be shown once.

What was measured:
C57BL/6J mice = experiment: Novelty-suppressed feeding test (NSFT); format: in vivo
Experimental: The mice were individually housed in new cages and deprived of food for 24 h. The testing equipment was a brightly lit plastic box measuring 40 × 40 × 30 cm^3 with a light intensity of 1100–1200 lux. Each mouse was positioned in a corner of the device with one food pellet located at the center. The latency to start chewing food was recorded within 5 min. Immediately thereafter, the mice were placed back in their home cage with pre‐measured food, and the amount consumed in the next 5 min was used as a baseline to account for appetite changes that might affect the outcome.

5-HT2A receptor = molecular target: T1, 5-HT2A receptor (Homo sapiens, UniProt P28223); experiment: 5-HT2A functional assay (Fluo-4 calcium, FDSS); format: cell-based
T1 construct: expressed in transfected cells
Experimental: Cells with inducible expression of target receptor were cultured in 175‐cm^2 flasks until ≈80% confluence, washed once with phosphate‐buffered saline (PBS), and dissociated using 0.25% trypsin–EDTA. After neutralization with culture medium and centrifugation (800 rpm, 3 min), the cells were resuspended, counted, and seeded onto poly‐D‐lysine‐coated 96‐well black plates at a density of 4 × 10^4 cells/well. Expression of the target receptor was induced with 1 µg mL^−1 doxycycline. After 30 min at room temperature, the plates were incubated at 37 °C, 5% CO2 for 18−24 h until reaching ≈90% confluence. The medium was replaced with Ca^2⁺‐free extracellular buffer, washed once, and incubated with Fluo‐4 AM for 60 min at 37 °C in the dark. After washing twice with extracellular buffer, extracellular buffer was added (80 µL/well), and the cells were incubated for an additional 20 min at room temperature before fluorescence recording. Real‐time fluorescence changes were recorded using an FDSS/µCell system at 480 nm excitation and 540 nm emission with a sampling rate of 1 Hz. After a 10‐s baseline, the test compounds were added (20 µL/well), and fluorescence was recorded for 180 s. Subsequently, […] was added (20 µL/well), and the signals were monitored for a total of 360 s.
The agonistic effect (%) of compounds was calculated as follows: (1) Agonist%=Rcompound−Rcontrol/Rcontrol×100% where R control is the maximal fluorescence ratio after the addition of 0.5% DMSO and R compoundis the ratio obtained after compound treatment. Fluorescence response curves and EC50 values were used to evaluate the agonistic potency. The extracellular (Ca^2+‐free) buffer contained (in mM): 140 NaCl, 5 KCl, 1 MgCl2, 10 glucose, 10 HEPES, 2 probenecid; pH adjusted to 7.4 with NaOH.

[1] = molecular target: T2, GluN1/GluN2B NMDA receptor (Homo sapiens, UniProt Q05586+Q13224); experiment: Patch clamp of GluN1/GluN2B NMDA receptors in stable HEK293T cells; format: cell-based
T2 construct: expressed in transfected cells
Text: For recording of GluN1/GluN2B NMDA receptors, HEK293T cells stably expressing GluN1 and GluN2B subunits were voltage‐clamped at −60 mV. […] The pipette solution contained (in mM):115 CsF, 10 CsCl, 10 HEPES and 10 BAPTA (pH 7.2 adjusted by CsOH). The bath solution contained (in mM): 140 NaCl, 2.8 KCl, 1 CaCl2, 10 HEPES and 20 sucrose (pH 7.4 adjusted with NaOH).

Kir4.1 T162A = molecular target: T3, Kir4.1 T162A (Homo sapiens, UniProt P78508, T162A); experiment: Whole-cell patch clamp, Kir4.1 point mutant T162A; format: cell-based; settings: JX3212 3 µM (Fig 2D)
T3 construct: expressed in transfected cells; host or cells: CHO-K1
Experimental: Plasmids encoding WT human potassium channels Kir1.1, Kir2.1, Kir2.2, Kir4.1, and Kir4.2 were obtained from the Beijing Genomics Institute. All point mutations were constructed using the QuickChange II Site‐Directed Mutagenesis Kit (Stratagene) and subsequently verified by sequencing.
CHO‐K1 cells were maintained in DMEM/F12 growth medium containing 10% fetal bovine serum. Plasmids encoding the target genes (3600 ng) and enhanced green fluorescent protein (400 ng) were cotransfected into cells using Lipofectamine 2000 (Invitrogen) in accordance with the manufacturer's instructions. Cells were seeded onto poly‐d‐lysine (PDL)‐coated glass coverslips 1 h prior to electrophysiological recordings. […]
Whole‐cell patch‐clamp recordings were obtained either in transiently transfected CHO‐K1 cells or in primary cultured astrocytes at room temperature using standard patch‐clamp techniques with an Axopatch‐700B amplifier (Axon Instruments). […] Macroscopic currents generated by expressed potassium channels were recorded under the voltage‐clamp conditions with an internal pipette solution composed of (in mM): 140 KCl, 5 NaCl, 1 CaCl2, 1 MgCl2, 10 HEPES, and 10 EGTA, pH 7.2 adjusted with KOH. […] Astrocytic resting membrane potentials were recorded under current‐clamp conditions (I = 0 pA) using standard internal and external solutions, determined immediately after achieving whole‐cell mode.

T2 sequence (Q13224 27-1484, other chains not shown): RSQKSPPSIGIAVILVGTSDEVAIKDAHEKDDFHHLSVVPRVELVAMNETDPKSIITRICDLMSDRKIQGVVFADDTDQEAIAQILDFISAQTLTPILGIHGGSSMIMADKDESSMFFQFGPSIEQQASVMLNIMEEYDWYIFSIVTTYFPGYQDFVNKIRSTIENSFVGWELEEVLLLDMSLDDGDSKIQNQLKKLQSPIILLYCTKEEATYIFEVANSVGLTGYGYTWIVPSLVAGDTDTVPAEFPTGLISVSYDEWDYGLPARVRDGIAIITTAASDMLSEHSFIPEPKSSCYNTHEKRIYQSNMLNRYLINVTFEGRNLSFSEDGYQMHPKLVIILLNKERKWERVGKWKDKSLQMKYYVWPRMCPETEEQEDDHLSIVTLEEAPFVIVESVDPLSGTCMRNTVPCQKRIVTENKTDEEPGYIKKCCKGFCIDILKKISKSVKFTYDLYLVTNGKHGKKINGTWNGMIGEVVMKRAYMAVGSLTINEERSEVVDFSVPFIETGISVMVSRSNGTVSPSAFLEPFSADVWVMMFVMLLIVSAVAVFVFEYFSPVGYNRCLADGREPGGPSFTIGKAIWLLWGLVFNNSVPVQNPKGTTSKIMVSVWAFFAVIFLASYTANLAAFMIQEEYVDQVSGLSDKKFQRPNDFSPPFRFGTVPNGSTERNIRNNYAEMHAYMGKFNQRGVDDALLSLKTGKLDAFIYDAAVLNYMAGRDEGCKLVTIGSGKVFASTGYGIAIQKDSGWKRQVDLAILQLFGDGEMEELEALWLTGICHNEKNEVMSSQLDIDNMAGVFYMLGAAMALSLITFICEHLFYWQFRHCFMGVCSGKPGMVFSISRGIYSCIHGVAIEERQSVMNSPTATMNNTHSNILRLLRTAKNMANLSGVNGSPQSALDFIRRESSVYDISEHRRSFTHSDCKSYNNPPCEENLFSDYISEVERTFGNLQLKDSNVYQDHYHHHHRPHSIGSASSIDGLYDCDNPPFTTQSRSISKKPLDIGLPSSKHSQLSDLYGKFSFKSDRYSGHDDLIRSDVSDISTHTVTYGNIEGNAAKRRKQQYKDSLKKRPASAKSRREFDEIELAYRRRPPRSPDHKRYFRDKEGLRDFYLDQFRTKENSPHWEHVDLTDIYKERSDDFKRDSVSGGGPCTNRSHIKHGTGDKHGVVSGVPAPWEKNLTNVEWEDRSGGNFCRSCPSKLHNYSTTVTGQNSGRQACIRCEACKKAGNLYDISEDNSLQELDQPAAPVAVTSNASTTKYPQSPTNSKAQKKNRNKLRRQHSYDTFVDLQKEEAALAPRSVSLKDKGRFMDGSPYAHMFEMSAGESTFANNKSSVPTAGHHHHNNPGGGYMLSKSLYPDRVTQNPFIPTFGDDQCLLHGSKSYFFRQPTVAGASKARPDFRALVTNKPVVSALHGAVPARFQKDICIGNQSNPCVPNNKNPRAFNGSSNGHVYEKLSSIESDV
T1 sequence (P28223 whole entry): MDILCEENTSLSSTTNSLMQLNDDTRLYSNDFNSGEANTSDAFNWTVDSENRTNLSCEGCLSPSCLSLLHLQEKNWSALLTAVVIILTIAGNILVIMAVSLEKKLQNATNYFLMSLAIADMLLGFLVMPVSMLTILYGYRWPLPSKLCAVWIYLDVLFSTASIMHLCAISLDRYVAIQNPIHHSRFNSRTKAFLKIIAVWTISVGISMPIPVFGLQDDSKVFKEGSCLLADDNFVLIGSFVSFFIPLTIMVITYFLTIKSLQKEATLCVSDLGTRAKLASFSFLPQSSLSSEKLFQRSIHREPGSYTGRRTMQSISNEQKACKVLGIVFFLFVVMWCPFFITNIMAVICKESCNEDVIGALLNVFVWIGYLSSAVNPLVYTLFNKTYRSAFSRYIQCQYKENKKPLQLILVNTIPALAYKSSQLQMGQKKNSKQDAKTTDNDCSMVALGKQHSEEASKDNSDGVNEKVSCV
T3 sequence (P78508 whole entry T162A): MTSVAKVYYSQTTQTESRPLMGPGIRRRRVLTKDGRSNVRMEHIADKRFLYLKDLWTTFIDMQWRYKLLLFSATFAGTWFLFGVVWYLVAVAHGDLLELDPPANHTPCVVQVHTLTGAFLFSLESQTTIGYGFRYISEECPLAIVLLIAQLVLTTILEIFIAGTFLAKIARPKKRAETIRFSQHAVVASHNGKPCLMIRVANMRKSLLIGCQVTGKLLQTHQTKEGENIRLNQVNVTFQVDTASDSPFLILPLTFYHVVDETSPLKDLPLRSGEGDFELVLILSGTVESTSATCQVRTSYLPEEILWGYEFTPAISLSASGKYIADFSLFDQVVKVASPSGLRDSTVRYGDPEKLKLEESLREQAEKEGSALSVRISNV

Structure (SMILES): c1ccc2c(c1)oc1ccc(Nc3ccnc(NCCCN4CCOCC4)n3)cc12 [JX3212, N^4-(dibenzo[b,d]furan-2-yl)-N^2-(3-morpholinopropyl)pyrimidine-2,4-diamine]
- effective threshold dose in NSFT (C57BL/6J mice; acute administration, doses 1, 3, 10 mg kg−1): 10 mg/kg
- food intake in home cage after NSFT (in words) (C57BL/6J mice; repeated administration, vs vehicle): remained comparable to that in the vehicle group
- Food intake in home cage, single mice (C57BL/6J mice; repeated doses, 3 mg/kg (Fig 3F), 3 mg/kg): 0.14 and 0.11 and 0.12 and 0.1 and 0.09
- NSFT antidepressant-like response after repeated administration (in words) (C57BL/6J mice; seven days, imipramine 15 mg kg−1, JX3212 3/10 mg kg−1): elicited significant antidepressant‐like responses
- NSFT latency to feed (in words) (C57BL/6J mice; single dose 10 mg kg−1 i.p., 1 h after administration): significantly reduced the latency to feed
- EC50 (5-HT2A receptor; agonistic effect): > 60 µM
- activation at 60 µM (5-HT2A receptor; read-out: 5-HT2A agonistic effect, replicates, concentration 60 (presumably µM)): 61.8%
- Emax (5-HT2A receptor; read-out: 5-HT2A max activation%): 58.6%
- IC50 [1]: 23.7 µM
- GLUN1/N2B inhibition, single recordings ([1]; concentration 10): 16.1554 and 31.4381 and 16.8072 and 24.8566
- GLUN1/N2B inhibition, single recordings ([1]; concentration 30): 75.9494 and 77.336 and 42.6087
- GLUN1/N2B inhibition, single recordings ([1]; concentration 50): 84.1069 and 85.4244 and 96.0913
- GLUN1/N2B inhibition, single recordings ([1]; concentration 100 (unit not given)): 91.8425 and 90.7749 and 99.6717 and 97.1777
- GLUN1/N2B inhibition, single recordings ([1]; concentration 300μ): 98.8477 and 99.3957 and 98.8626
- Mutation: T162A inhibition, single recordings (Kir4.1 T162A): 80.9735 and 73.6489 and 64.6435 and 83.1492 and 87.0339
